Reference: US12054495B2, “Substituted macrocyclic compounds and related methods of treatment” (Alkermes, Inc., priority 2019, dated 2024)
Like-named read-outs stand apart in the source and are kept apart here.

Key:
[1] = amide bond, HATU/DIEA
[2] = from CC(C)(C)OC(=O)N[C@H]1CCCN[C@H]1COC1CCC(c2ccccc2CCC(=O)O)CC1; amide bond; 13-membered ring; HATU/DIEA; MeCN; 0.36 mM; 2.0 h
[3] = amide bond, 13-membered ring
MDR1 = assay: MDCK-MDR1 permeability assay; format: in vitro ADME; settings: dog; for Papp A→B at 2 h, 3 μM: MDCK-MDR1, MDCK-MDR1 cells, apical to basolateral, 3 μM test compound, 2 hours at 37 degrees C; for efflux ratio at 2 h, 3 μM: MDCK-MDR1, Papp (basolateral to apical) divided by Papp (apical to basolateral), MDCK-MDR1 cells, read-out: Efflux ratio (ER)
Procedure: (§1) The bidirectional permeability (Apical to Basal and Basal to Apical directions) of test compounds in MDCK-MIDR1 cells were evaluated using MDCK-MIDR1 cells seeded in Solvo PreadyPort™ MIDCK 96-well plate. Once the plate was received from ReadyCell (Barcelona, Spain), it was treated as per PreadyPort™ user's manual.
(§2) For the Apical to Basolateral (A→B) permeability, 80 μL of test compound (3 μM) co-dosed with LY (Lucifer Yellow) (100 μM) in HBSS (Hank's Balanced Salt Solution) assay buffer was added to the donor side (A) while 250 μL of HBSS buffer was added to the receiver side (B). For the Basolateral to Apical (B→A) permeability, 255 μL of test compound (3 μM) in HBSS assay buffer was added to the donor side (B) while 75 μL of HBSS buffer containing LY (100 μM) was added to the receiver side (A).
(§3) The plate was placed in an incubator set at 37 degrees C. After 10 minutes of pre-warming, 5 μL aliquot was taken from donor compartment and set aside as the dosing solution. The MDCK-MDR1 incubation plate was placed back into the incubator for 2 hours of incubation at 37 degrees C. After 2 hours of incubation, 25 μL and 5 μL aliquots were removed from the receiver and donor sides, respectively. To the 5 μL aliquots taken from the donor sides (before and after a 2-hour incubation) were diluted with 20 μL of the HBSS buffer. All samples were mixed with 150 μL with acetonitrile containing internal standard (IS) and 200 μL water, and analyzed by LC-MS/MS.
(§4) The apparent permeability (Papp) was calculated using the following formula: Papp=dQ/dt×1/A×C0 where: • dQ/dt: amount of translocated material over incubation time (nmol/s) • A: area of insert (0.14 cm^2 for PreadyPort™ MDR1-96) • C0: initial concentration of product applied in apical (A→B) or basal (B→A) compartment (nmol/mL)
(§5) The efflux ratio (ER) was measured by dividing the Papp (basolateral to apical direction) by Papp (apical to basolateral direction). It is a general measure of the involvement of active processes. An ER>2 is considered positive for active transport.
(§6) The data reported in Table 3 were obtained according to the MDCK-MIDR1 permeability assay described above.

Sprague-Dawley rats = assay: Assessment of wake promotion in Sprague-Dawley rats (EEG/EMG); format: in vivo; settings: Rattus norvegicus; PO, 3 mpk, male Sprague-Dawley rats, dosed at ZT5, 6-hour post-dose period; read-out: Mean cortical activation time (% vehicle treatment)
Procedure: Wake promotion was assessed using electroencephalography (EEG) and electromyography (EMG) in adult male Sprague-Dawley rats (350-600 g). All rats (Charles River Laboratories, Raleigh, NC, USA) were intraperitoneally implanted with telemetry devices (F50-EEE, Data Sciences International Inc., M/N, USA) under isoflurane anesthesia. For EEG, stainless steel screws were implanted over frontal cortex and parietal cortex, and reference screws were placed over cerebellum. Additionally, an electrode was placed in neck muscle for EMG. Rats were given carprofen post-surgery and underwent a 7 to 10-day recovery period. Rats habituated to the experimental room for 7 days and were maintained on a 12-hour light-dark cycle.
EEG and EMG data were recorded using the DSI telemetry system and Ponemah software (Data Sciences International Inc., MN, USA). Sleep-wake stages were scored both manually and with Somnivore, a supervised machine learning software platform, in 10 second epocs. Records were visually inspected as needed post-processing.
All test compounds were dissolved in 5% DMSO and suspended in 95% saline with 0.5% methylcellulose and 0.5% tween. […] Unless otherwise indicated, all compounds were dosed orally. Recordings for each rat were initiated immediately after dosing and lasted for 6 hours post-dose.
Two key endpoints include wakefulness time and cortical activation time. Wakefulness time is derived from the sleep-wake stage analysis. Cortical activation time is based on the duration in which frontal gamma oscillatory activity (30-100 Hz), a key feature of wakefulness, was elevated relative to a pre-treatment baseline. Mean cortical activation time was computed relative to vehicle treatment for the 6-hour post-dose period.

[4] = Hepatocytes stability assay (human hepatocytes); format: in vitro ADME; settings: both sexes, cryopreserved hepatocytes, 1 μM test compound, 1×10^6 cell/mL, 37 degrees C, read-out: CLint (μL/min/million cells)
Method in brief: (§7)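 Cryopreserved pooled (50 donors, mixed gender) human hepatocytes at 1×10^6 cells/mL in Krebs-Henseleit buffer with 1 μM compound (0.1% DMSO), 37 degrees C, sampled 0–240 min. Parent depletion by LC-MS/MS; first-order fit gave T1/2 and CLint, scaled to hepatic clearance via well-stirred model (fu assumed 1); extraction ratio = CL,hep/liver blood flow.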

human hepatocytes = assay: Hepatocytes stability assay (human hepatocytes); format: in vitro ADME; settings: for Extraction Ratio (ER): scaled hepatic clearance divided by liver blood flow, fu assumed unity
Method in brief: as §7

MDCK-MDR1 cells = assay: MDCK-MDR1 permeability assay; format: in vitro ADME; settings: MDCK-MDR1 cells; for Papp A→B (10^−6 cm/s): apical to basolateral, 3 μM test compound, 2 hours at 37 degrees C
Procedure: as §1, §2, §3, §4, §5, §6

[5] = biological target: T1, human orexin-2 receptor (OX2R) (Homo sapiens, UniProt O43614); assay: Human OX2R IP1 assay; format: cell-based; settings: T-Rex CHO cells stably overexpressing human OX2R, IP1 accumulation, 1 hr at 37 degrees C; mean EC50; ∧ = racemic mixture
T1 construct: expressed in transfected cells
T1 sequence (O43614 1-444): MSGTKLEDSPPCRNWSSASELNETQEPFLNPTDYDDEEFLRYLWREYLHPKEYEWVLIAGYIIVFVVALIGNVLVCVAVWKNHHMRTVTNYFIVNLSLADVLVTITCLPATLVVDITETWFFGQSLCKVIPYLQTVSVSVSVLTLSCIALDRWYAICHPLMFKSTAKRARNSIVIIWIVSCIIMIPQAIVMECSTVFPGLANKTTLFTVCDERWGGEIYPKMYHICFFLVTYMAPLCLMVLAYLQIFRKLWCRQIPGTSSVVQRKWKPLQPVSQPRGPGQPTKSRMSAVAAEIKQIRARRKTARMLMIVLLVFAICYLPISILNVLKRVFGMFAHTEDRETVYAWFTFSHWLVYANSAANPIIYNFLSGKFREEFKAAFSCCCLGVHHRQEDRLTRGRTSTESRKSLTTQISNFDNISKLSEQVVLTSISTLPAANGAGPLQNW
Procedure: T-Rex CHO cells stably overexpressing the human orexin-2 receptor (OX2R) were induced overnight with 1 μg/mL of doxycycline in a T225 flask. 24 hours post induction, cells were lifted with accutase and plated into a 384-well proxy plate at 30,000 cells/well. Cells were then treated with different test compounds in 1× stimulation buffer containing 10 mM Hepes, 1 mM CaCl2), 0.5 mM MgCl2, 4.2 mM KCl, 146 mM NaCl, 5.5 mM glucose, and 50 mM LiCl, pH 7.4, for 1 hr at 37 degrees C. Following incubation, the reaction was terminated by the addition of detection mix, which is composed of IP1-d2 and anti-IP1-cryptate diluted in lysis buffer as well as 1× stimulation buffer. The plates were allowed to incubate for 1 hour at room temperature and were then read in the EnVision® multimode plate reader, measuring inositol phosphate levels.
Cisbio IP1 is a cell-based functional assay quantifying the accumulation of inositol monophosphate (IP), a metabolite released as a result of orexin 2 receptor activation through the phospholipase C-Gq signaling pathway. This is a competitive immunoassay in which the IP1 produced by the cells upon receptor activation competes with the IP1 analog coupled to the d2 fluorophore (acceptor) for binding to an anti-IP1 monoclonal antibody labeled with Eu cryptate (donor). The measured HTRF-FRET based signal is inversely proportional to the IP1 concentration produced.
The EC50 values reported in Table 2 were obtained according to the human OX2R IP1 assay described above. Data are the mean EC50 values ±S.E.M. The compound methyl (2R,3S)-3-((methylsulfonyl)amino)-2-(((cis-4-phenylcyclohexyl)oxy)methyl)-piperidine-1-carboxylate is a reference compound which is disclosed in Example 5 of PCT publication no. WO2017/135306.

Papp A→B at 2 h, 3 μM (MDR1)	efflux ratio at 2 h, 3 μM (MDR1)	hepatocyte CLint at 1 μM [4]	Extraction Ratio (ER) (human hepatocytes)	Compound	response vs control in vivo at 3 mg/kg (Sprague-Dawley rats)	also measured
				CC(C)(C)OC(=O)N[C@H]1CCCN2C(=O)CCOc3ccccc3C3CCC(CC3)OC[C@@H]12		ring closure, yield after HPLC ([1]; from CC(C)(C)OC(=O)N[C@H]1CCCN[C@H]1COC1CCC(c2ccccc2OCCC(=O)O)CC1, 14-membered ring, MeCN, 7.4 mM, 18.0 h): 80.3%
				CC(C)(C)OC(=O)N[C@H]1CCCN2C(=O)CCc3ccccc3C3CCC(CC3)OC[C@@H]12		ring closure, yield after HPLC ([1]; from CC(C)(C)OC(=O)N[C@H]1CCCN[C@H]1COC1CCC(c2ccccc2CCC(=O)O)CC1, 13-membered ring, MeCN, 0.36 mM, 2.0 h): 19%; ring closure, conversion [2]: 40%
				CC(C)(C)OC(=O)N[C@H]1CCCN2C(=O)COc3nccnc3C3CCC(CC3)OC[C@@H]12		ring closure, isolated yield ([3]; from CC(C)(C)OC(=O)N[C@H]1CCCN[C@H]1COC1CCC(c2nccnc2OCC(=O)O)CC1, HATU/DIEA, MeCN, 2.16 mM, 1.0 h): 42.1%
				CC(C)(C)OC(=O)N[C@H]1CCCN2C(=O)COc3nnccc3C3CCC(CC3)OC[C@@H]12		ring closure, isolated yield ([3]; from CC(C)(C)OC(=O)N[C@H]1CCCN[C@H]1COC1CCC(c2ccnnc2OCC(=O)O)CC1, HATU/DIEA, MeCN, 0.94 mM, 25.0 °C, 2.0 h): 76%
				COc1ccc(CNC2CCN3C(=O)C(F)(F)Oc4c(F)cc(F)cc4C4CCC(CC4)OCC23)cc1 (stereo not shown)		ring closure, isolated yield ([3]; from COc1ccc(CNC2CCNC2COC2CCC(c3cc(F)cc(F)c3OC(F)(F)C(=O)O)CC2)cc1, HATU/diisopropylamine, DCM/MeCN 1:1, 18.5 mM, 3.0 h): 39.3%
0.89 ×10⁻⁶ cm/s	39	13 µL/min/1e6 cells	0.67	CS(=O)(=O)N[C@H]1CCCN2C(=O)COc3ccccc3C3CCC(CC3)OCC12 (stereo partly shown) [Compound 2]	190%	
14 ×10⁻⁶ cm/s	2.2	24 µL/min/1e6 cells	0.78	CS(=O)(=O)N[C@H]1CCN2C(=O)COc3ccccc3C3CCC(CC3)OCC12 (stereo partly shown) [Compound 7]	165%	
2.3 ×10⁻⁶ cm/s	6.2	13 µL/min/1e6 cells	0.66	CS(=O)(=O)N[C@H]1CCCN2C(=O)COc3c(F)cc(F)cc3C3CCC(CC3)OCC12 (stereo partly shown) [Compound 12]	236%	
0.31 ×10⁻⁶ cm/s	58	6.9 µL/min/1e6 cells	0.51	CS(=O)(=O)N[C@H]1CCCN2C(=O)COc3ncccc3C3CCC(CC3)OCC12 (stereo partly shown) [Compound 46]	157%	
0.59 ×10⁻⁶ cm/s	21	4.6 µL/min/1e6 cells	0.41	CS(=O)(=O)N[C@H]1CCCN2C(=O)COc3ccc(Cl)cc3C3CCC(CC3)OCC12 (stereo partly shown) [Compound 51]	166%	
0.092 ×10⁻⁶ cm/s	77	< 1.9 µL/min/1e6 cells	<0.22	CS(=O)(=O)N[C@H]1CCCN2C(=O)COc3nccnc3C3CCC(CC3)OCC12 (stereo partly shown) [Compound 55]	145%	
	5.2	< 1.9 µL/min/1e6 cells	<0.22	CS(=O)(=O)N[C@H]1CCCN2C(=O)COc3nnccc3C3CCC(CC3)OCC12 (stereo partly shown) [Compound 56]		Papp A→B (10^−6 cm/s) (MDCK-MDR1 cells): 0.13 10^−6 cm/s
			<0.22	CS(=O)(=O)N[C@H]1CCCN2C(=O)COc3nnccc3[C@H]3CC[C@H](CC3)OC[C@@H]12 [Compound 66]		Papp A→B (10^−6 cm/s) (MDCK-MDR1 cells): <0.047 10^−6 cm/s; Efflux ratio (ER) (MDCK-MDR1 cells; Papp (basolateral to apical) divided by Papp (apical to basolateral), 3 μM): >9.5; EC50 [5]: < 100 nM; CLint (μL/min/million cells) (human hepatocytes; 1 μM test compound, 1×10^6 cell/mL, 37 degrees C): <1.9 μL/min/million cells
				tert-butyl ((2^1S,2^4S,5^2R,5^3S)-6-oxo-3,11-dioxa-5(2,1)-piperidina-1(1,2)-benzena-2(1,4)-cyclohexanacycloundecaphane-5^3-yl)carbamate		ring closure, yield after HPLC ([1]; 16-membered ring, DMF/MeCN 1:2, 16.3 mM, 25.0 °C): 88.1%
